# In patent US20140179677A1, “THERAPEUTIC AGENT FOR ECTOPIC PREGNANCY” (AKITA UNIVERSITY, priority 2010, published 2014):
# How the values were obtained:
# [1] = tested on: human placental villous explants (villous trophoblasts); assay: Human villous explant culture: apoptosis (TUNEL, caspase-3/7 enzyme assay); assay type: cell-based; details: 96 h culture; for proportion of TUNEL-positive nuclei: TrkB ectodomain 10 μg/ml, K252a 1,000 nM, K252b 1,000 nM; for caspase-3/7 activities, increase relative to controls: villous explants, 3% O2
# Description: (§1) Preparation and cultivation of human villous explants of first trimester placentas were performed as described (Non-patent Document 13). Briefly, human placental villi at 6-8 weeks of gestation were aseptically dissected to remove decidual tissue and fetal membranes. Small pieces of placental villi (8 mg wet weight) were dissected under a stereomicroscope (Leica Microsystems, Tokyo, Japan). Each villous piece was put on Millicell-CM culture dish inserts (12-mm diameter) (Millipore, Bedford, Mass.) that were precoated with 200 μl of undiluted Matrigel Growth Factor Reduced (BD Bioscience pharmingen) and placed in 24-well culture plates. The villous pieces were covered with 150 μl of culture medium (DMEM/F12 without serum supplemented with 100 U/ml penicillin, 100 μg/ml streptomycin, and 0.25 μg/ml ascorbic acid, pH 7.4) (Invitrogen, Carlsbad, Calif.), whereas the bottom chamber contained 500 μl of culture medium. […] Culture media were changed every 48 h and collected for measurement of glucose concentration.
# (§2) In some experiments, morphological changes in villous explants were evaluated by hematoxylin and eosin (H&E) staining. Furthermore, the activity of cellular proliferation was determined by immunohistochemical detection of proliferating cell nuclear antigen (PCNA) and Ki-67 antigens. To measure the progression of apoptosis, some villous explants were subjected to a quantitative caspase-3/7 enzyme assay as described (Non-patent Documents 12, 16). Apoptosis in villous explants was also assayed by detecting DNA fragmentation using in situ terminal deoxynucleotidyl transferase-mediated […] nick end-labeling (TUNEL) (Non-patent Document 17).
# [2] = tested on: human placental villous explants (extravillous trophoblasts); assay: Human villous explant culture: EVT outgrowth and HLA-G transcript levels (trophoblast differentiation); assay type: cell-based; details: 96 h culture; for EVT outgrowth: villous explants 6-8 weeks of gestation, 3% O2, different doses; for transcript levels of HLA-G: villous explants, 3% O2, real-time RT-PCR
# Description: as §1
# (§3) At the end of cultures, some villous explants including EVT outgrowth were subjected to RNA extraction for real-time RT-PCR to quantify the transcript levels of human leukocyte antigen-G (HLA-G). Glucose utilization by the villous explants was calculated from the difference between glucose concentration in fresh medium and that in the conditioned medium after 48 h of culture using an enzymatic assay (Mitsubishi BCL, Tokyo, Japan). The results were expressed as mg per 0.1 g wet weight tissue/48 h.
# (§4) Quantitative real-time RT-PCR of TrkB and human leukocyte antigen-G (HLA-G) transcript levels in placental villi and mouse kidneys with xenotransplanted human villi was performed using a SmartCycler (Takara, Tokyo, Japan) with primers and hybridization probes for TrkB and β-actin as described (Non-patent Document 32). Primers for TrkB corresponded to the catalytic kinase domain of the receptor to avoid the amplification of truncated isoforms (Non-patent Document 33). Fragmented TrkB was specifically amplified using a reported primer (Non-patent Document 37). Validated Taqman gene expression assay was used to quantify the expression of HLA-G (Applied Biosystems, Forster City, Calif.). Data were normalized based on β-actin transcript levels.
# [3] = tested on: human placental villous explants (villous cytotrophoblasts); assay: Human villous explant culture: trophoblast proliferation and viability (H&E, PCNA, Ki-67, glucose utilization); assay type: cell-based; details: for detachment of trophoblast layers from villous stromal core / number of villous cytotrophoblasts: 96 h culture, H&E, TrkB ectodomain 10 μg/ml, K252a 1,000 nM, K252b 1,000 nM
# Description: as §1, §3, §2
# (§5) To localize BDNF and TrkB, BDNF and TrkB immunostaining in placental villi and villous tissues of ectopic pregnancy were performed as described (Non-patent Document 11). BDNF antigen and TrkB antigen were detected by rabbit anti-BDNF polyclonal antibody (Chemicon, Temecula, Calif.) and chicken anti-TrkB polyclonal antibody (Promega, Madison, Wis.) recognizing full length TrkB were used, respectively, after dilution to 1:100. Some slides were subjected to proliferating cell nuclear antigen (PCNA) or Ki-67 immunostaining to evaluate cellular proliferation, whereas cytokeratin and HLA-G immunostaining were performed to identify trophoblasts and extravillous trophoblasts (EVTs) in the xenotransplanted human villi, respectively. After deparaffinization and dehydration, antigen retrieval was performed by autoclave heating at 121° C. for 10 min (PCNA and Ki-67), treatment with 0.4 mg/ml proteinase K (Sigma, St. Louis, Mo.) at room temperature for 5 min (cytokeratin), or microwave heating in 10 mM citrate buffer (pH 6) for 3×3 min (HLA-G). Endogenous peroxidase activities were quenched with 0.3% […] in methanol for 30 min. […]
# [4] = Side effects and body weight of treated SCID mice; assay type: in vivo
# Excerpt: To explore the roles of endogenous TrkB signaling in human ectopic pregnancy, xenotransplantation of human placental villi at 7-8 weeks of gestation into SCID mice (C.B-17/Icr-scid/scidJcl) (CLEA Japan, Tokyo, Japan) was used as an in vivo model. The care and use of animals was approved by the Animal Research Committee, Akita University School of Medicine. In preparation of grafts, small pieces of the placental villi were dissected as described above and kept in ice-cold PBS until transplantation. After anesthetizing of the SCID mice at 8-11 weeks of age with tribromoethanol (14-20 mg/kg) (Sigma, St. Louis, Mo.), the left and right kidneys were sequentially exteriorized. A 0.5 mm incision was then made in each kidney capsule, and a piece of the placental villi (5 mg wet weight) was transplanted underneath the capsule using a blunt tip tweezers. Treatment was initiated in animals after 1 week of transplantation when murine vascular networks were known to appear in areas of cytotrophoblast invasion (Non-patent Document 18). […] To identify trophoblasts in the kidney, cytokeratin, a marker for trophoblasts (Non-patent Document 20), was detected by immunohistochemistry. In addition to H&E staining, in vivo cell proliferation and apoptosis in the excised samples were evaluated by immunostaining of PCNA and Ki-67, and the TUNEL assay, respectively.
# [5] = tested on: human placental villi transplanted under the kidney capsule; assay: Xenotransplantation of human villi into SCID mice as in vivo model of ectopic pregnancy
# Excerpt: To explore the roles of endogenous TrkB signaling in human ectopic pregnancy, xenotransplantation of human placental villi at 7-8 weeks of gestation into SCID mice (C.B-17/Icr-scid/scidJcl) (CLEA Japan, Tokyo, Japan) was used as an in vivo model. The care and use of animals was approved by the Animal Research Committee, Akita University School of Medicine. In preparation of grafts, small pieces of the placental villi were dissected as described above and kept in ice-cold PBS until transplantation. After anesthetizing of the SCID mice at 8-11 weeks of age with tribromoethanol (14-20 mg/kg) (Sigma, St. Louis, Mo.), the left and right kidneys were sequentially exteriorized. A 0.5 mm incision was then made in each kidney capsule, and a piece of the placental villi (5 mg wet weight) was transplanted underneath the capsule using a blunt tip tweezers. Treatment was initiated in animals after 1 week of transplantation when murine vascular networks were known to appear in areas of cytotrophoblast invasion (Non-patent Document 18). Animals weighted between 19-22 g on day of treatment. Intraperitoneal (ip) administration of K252a dissolved in physiological saline (500 μg/kg) was performed daily. For negative controls, treatment with K252b (500 μg/kg) or vehicle alone was used. The doses of K252a and K252b chosen for these experiments were based on previous studies (Non-patent Documents 12, 19). Some animals were treated daily with methotrexate (ip; 1 mg/kg) (Sigma) corresponding to the therapeutic dose used for medical treatment of ectopic pregnancy (Non-patent Document 3). The mice were killed after 7 days of treatment. Kidneys with villi transplants were excised and homogenized to measure hCG-β levels and caspase-3/7 activities. To identify trophoblasts in the kidney, cytokeratin, a marker for trophoblasts (Non-patent Document 20), was detected by immunohistochemistry. In addition to H&E staining, in vivo cell proliferation and apoptosis in the excised samples were evaluated by immunostaining of PCNA and Ki-67, and the TUNEL assay, respectively.
# as §4, §5
# [6] = K252a 500 μg/kg ip daily for 7 days
compound,measurement,setting,value
"TrkB ectodomain: soluble ectodomain of TrkB (R&D Systems), binds BDNF and competingly suppresses BDNF/TrkB binding",proportion of TUNEL-positive nuclei,[1],increased the proportion of TUNEL-positive nuclei
same,"caspase-3/7 activities, increase relative to controls",[1],Increases in caspase-3/7 activities
same,EVT outgrowth,[2],suppressed EVT outgrowth in a dose-dependent manner
same,transcript levels of HLA-G,[2],decreases in the transcript levels of HLA-G
same,detachment of trophoblast layers from villous stromal core,[3],induced partial detachment of trophoblast layers
same,number of villous cytotrophoblasts,[3],decreased the number of villous cytotrophoblasts
COC(=O)[C@@]1(O)C[C@H]2O[C@]1(C)n1c3ccccc3c3c4c(c5c6ccccc6n2c5c31)C(=O)NC4 [K252a],body weight,"[4]; 500 μg/kg ip daily, during studies, mean±SEM",19.27 ± 1.03 g
same,body weight changes,[4]; K252a 500 μg/kg ip daily,no body weight changes
same,proportion of TUNEL-positive nuclei,[1],increased the proportion of TUNEL-positive nuclei
same,"caspase-3/7 activities, increase relative to controls",[1],Increases in caspase-3/7 activities
same,EVT outgrowth,[2],suppressed EVT outgrowth in a dose-dependent manner
same,transcript levels of HLA-G,[2],decreases in the transcript levels of HLA-G
same,TUNEL-positive nuclei in cytotrophoblasts,[5]; [6],increases in TUNEL-positive nuclei
same,"activation of caspase-3/7 within the xenografts, increase relative to vehicle",[5]; [6],4.1 fold
same,cell proliferation by PCNA and Ki-67 staining,[5]; [6],suppression of cell proliferation
same,transcript levels for HLA-G in kidney with transplanted villi,[5]; [6],major decreases in transcript levels for HLA-G
same,decrease in hCG-β levels in tissue homogenates,"[5]; K252a 500 μg/kg ip daily for 7 days, RIA",73.3%
same,cell numbers of invading EVTs and cytotrophoblasts in villous cores,"[5]; K252a 500 μg/kg ip daily for 7 days, cytokeratin, HLA-G, H&E staining",decreases in cell numbers of invading EVTs and cytotrophoblasts
same,detachment of trophoblast layers from villous stromal core,[3],induced partial detachment of trophoblast layers
same,number of villous cytotrophoblasts,[3],decreased the number of villous cytotrophoblasts
same,inhibition at 1 µM,"[3]; Homo sapiens, 48 h, read-out: glucose utilization by villous explants, inhibition",> 94%
"CN(Cc1cnc2nc(N)nc(N)c2n1)c1ccc(C(=O)N[C@@H](CCC(=O)O)C(=O)O)cc1 [MTX, methotrexate]","trophoblast differentiation, proliferation, and survival",[5]; MTX 1 mg/kg ip daily for 7 days,did not inhibit
C[C@]12O[C@H](C[C@]1(O)C(=O)O)n1c3ccccc3c3c4c(c5c6ccccc6n2c5c31)CNC4=O [K252b],all parameters tested in the xenotransplant model,[5]; K252b 500 μg/kg ip daily for 7 days,ineffective
